This is an account of results in US20220283158A1, “METHOD OF IDENTIFYING PEPTIDE ANTIGENS AND USES THEREOF” (HUMANIRAS MIRASOLE S.P.A., priority 2019, published 2022).

The subject of the test is C57BL6/J 8-week-old male mice. In words: Immunization of healthy mice with single peptides in adjuvant, echocardiography of heart functionality. It is filed as in vivo, mouse. Particulars: s.c. 100 μg peptide in CFA day 0, boost in IFA day 21; echocardiography at 2, 5 and 9 weeks; versus CTR- (only CFA). The protocol: C57BL6/J 8-week-old male mice were screened at baseline for heart functionality, via echocardiography, and randomly divided into 5 experimental groups. Mice belonging to control group (CTR-, only CFA) were injected subcutaneously (immunized, but without antigen: negative control) with 100 μl Complete Freud's Adjuvant (CFA) at day 0 and boosted with 100 μl of Incomplete Freud's Adjuvant (IFA) on day 21. Mice belonging to group 3 (CTR+) were injected subcutaneously (immunized, known antigen: positive control) with 100 μg of each of the three peptides (SEQ ID NOs. 15-17) derived from beta-adrenergic receptor and listed in the Table of FIG. 4, emulsified in Complete Freud's Adjuvant (CFA) at day 0 and boosted with 100 μg of the three peptides emulsified in Incomplete Freud's Adjuvant (IFA) on day 21. Mice belonging to group 4_A (Peptide 4_A) were injected subcutaneously (immunized) with 100 μg of the peptide of SEQ ID NO. 1, derived from 14-3-3 protein, emulsified in Complete Freud's Adjuvant (CFA) at day 0 and boosted with 100 μg of each of the three peptides emulsified in Incomplete Freud's Adjuvant (IFA) on day 21. Mice belonging to group 4_B (Peptide 4_B) were injected subcutaneously (immunized) with 100 μg of the peptide of SEQ ID NO. 5, derived from Snrpd1 protein, emulsified in Complete Freud's Adjuvant (CFA) at day 0 and boosted with 100 μg of each of the three peptides emulsified in Incomplete Freud's Adjuvant (IFA) on day 21. Mice belonging to group 4_C (Peptide 4_C) were injected subcutaneously (immunized) with 100 μg of the peptide of SEQ ID NO. 14, derived from Atp5o protein, emulsified in Complete Freud's Adjuvant (CFA) at day 0 and boosted with 100 μg of each of the three peptides emulsified in Incomplete Freud's Adjuvant (IFA) on day 21. On day 0 and day 2, all the mice were intraperitoneally injected with 200 ng of Pertussis Toxin. Heart functionality of all mice was analyzed via echocardiography at 2, 5 and 9 weeks after the first subcutaneous injection. In FIG. 7, the results of echocardiography analysis of cardiac functionality parameters % FS and % EF of C57BL6/J mice immunized with the peptide of SEQ ID NO. 1 (14-3-3 protein), the peptide of SEQ ID NO. 5 (Snrpd1 protein), or the peptide of SEQ ID NO. 14 (Atp5o protein) are shown. […] Data are plotted as mean±SEM, (n=4-6). Two-way ANOVA and Tukey's multiple comparison test with matching subjects. * p<0.05, ** p<0.01, ***p<0.001.
Consider “Peptide 4_C: peptide of SEQ ID NO. 14, derived from Atp5o protein (LTANLMNLLAENGRL; listed as Mus musculus)”, for which the “% EF” value is “significantly reduced” and the “% FS” value was “significantly reduced”.

Consider “Peptide 4_A: peptide of SEQ ID NO. 1, derived from 14-3-3 protein (LGLALNFSVFYYEIL; listed as Homo sapiens)”, for which the “% EF” value was “significantly reduced” and the “% FS” value was “significantly reduced”.

Regarding “Peptide 4_B: peptide of SEQ ID NO. 5, derived from Snrpd1 protein (EPVQLETLSIRGNNIRYFILPDSLP; listed as Homo sapiens)”, the “% EF” value is “significantly reduced” and the “% FS” value is on record as “significantly reduced”.
